Test results: PubChem BioAssay AID1918998 (Molecular Pharmacology Branch, DTP, NCI, 2023)

Tested on: 521955-158-R2-J5-PDC complex spheroid growth
Assay: Anticancer human tumor 521955-158-R2-J5-PDC patient-derived pancreatic carcinoma cell line growth inhibition [AhR]
Conditions: for IC50: curve of first compound; for viability, T/C: stronger effect = lower value
Outline: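 Spheroids combined tumor cells with HUVEC endothelial cells and human MSCs as stroma. AhR antagonists were paired with standard or investigational drugs, each dosed in half-log steps down from near clinical Cmax, or from 10 microM where Cmax was unknown.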

[1] = second compound 0.1 µM, first compound 0.0316 µM
[2] = second compound 0.1 µM, first compound 0.1 µM
[3] = second compound 0.1 µM, first compound 0.316 µM
[4] = second compound 0.1 µM, first compound 1 µM
[5] = second compound 0.1 µM, first compound 3.16 µM
[6] = second compound 0.1 µM, first compound 10 µM
[7] = second compound 0.316 µM, first compound 0.0316 µM
[8] = second compound 0.316 µM, first compound 0.1 µM
[9] = second compound 0.316 µM, first compound 0.316 µM
[10] = second compound 0.316 µM, first compound 1 µM
[11] = second compound 0.316 µM, first compound 3.16 µM
[12] = second compound 0.316 µM, first compound 10 µM
[13] = second compound 1 µM, first compound 0.0316 µM
[14] = second compound 1 µM, first compound 0.1 µM
[15] = second compound 1 µM, first compound 0.316 µM
[16] = second compound 1 µM, first compound 1 µM
[17] = second compound 1 µM, first compound 3.16 µM
[18] = second compound 1 µM, first compound 10 µM
[19] = second compound 3.16 µM, first compound 0.0316 µM
[20] = second compound 3.16 µM, first compound 0.1 µM
[21] = second compound 3.16 µM, first compound 0.316 µM
[22] = second compound 3.16 µM, first compound 1 µM
[23] = second compound 3.16 µM, first compound 3.16 µM
[24] = second compound 3.16 µM, first compound 10 µM
[25] = second compound 10 µM, first compound 0.0316 µM
[26] = second compound 10 µM, first compound 0.1 µM
[27] = second compound 10 µM, first compound 0.316 µM
[28] = second compound 10 µM, first compound 1 µM
[29] = second compound 10 µM, first compound 3.16 µM
[30] = second compound 10 µM, first compound 10 µM
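Wherever viability, T/C is given: spheroids mix tumor cells with HUVEC endothelium and human MSC stroma; luminescence taken as viability surrogate after a week of drug exposure.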

## CC(C)c1c(-c2ccccc2)nc2c(C#N)c[nH]n2c1=O + Cc1ccccc1N=Nc1ccc(NC(=O)c2ccnn2C)c(C)c1
Second compound 0.1 µM
  IC50: > 10000 nM
Second compound 0.316 µM
  IC50: > 10000 nM
Second compound 1 µM
  IC50: > 10000 nM
Second compound 3.16 µM
  IC50: > 10000 nM
Second compound 10 µM
  IC50: > 10000 nM
[1]
  viability, T/C: 98.1%
[2]
  viability, T/C: 125%
[3]
  viability, T/C: 80.3%
[4]
  viability, T/C: 94.7%
[5]
  viability, T/C: 81.2%
[6]
  viability, T/C: 97.8%
[7]
  viability, T/C: 115%
[8]
  viability, T/C: 95.1%
[9]
  viability, T/C: 110%
[10]
  viability, T/C: 81.5%
[11]
  viability, T/C: 82%
[12]
  viability, T/C: 81.6%
[13]
  viability, T/C: 88.7%
[14]
  viability, T/C: 101%
[15]
  viability, T/C: 102%
[16]
  viability, T/C: 87.8%
[17]
  viability, T/C: 92.6%
[18]
  viability, T/C: 97.8%
[19]
  viability, T/C: 128%
[20]
  viability, T/C: 125%
[21]
  viability, T/C: 127%
[22]
  viability, T/C: 114%
[23]
  viability, T/C: 114%
[24]
  viability, T/C: 114%
[25]
  viability, T/C: 141%
[26]
  viability, T/C: 130%
[27]
  viability, T/C: 132%
[28]
  viability, T/C: 123%
[29]
  viability, T/C: 114%
[30]
  viability, T/C: 103%

## CC1COCCN1c1cc(-c2ccnn2C)c2ccnc(-c3ccn[nH]3)c2n1 (stereo not given) + Cc1ccccc1N=Nc1ccc(NC(=O)c2ccnn2C)c(C)c1
Second compound 0.1 µM
  IC50: 149 nM
Second compound 0.316 µM
  IC50: 154 nM
Second compound 1 µM
  IC50: 152 nM
Second compound 3.16 µM
  IC50: 143 nM
Second compound 10 µM
  IC50: 101 nM
Second compound 0.1 µM, first compound 0.00316 µM
  viability, T/C: 128%
Second compound 0.1 µM, first compound 0.01 µM
  viability, T/C: 116%
[1]
  viability, T/C: 122%
[2]
  viability, T/C: 66.6%
[3]
  viability, T/C: 19.4%
[4]
  viability, T/C: 17.9%
Second compound 0.316 µM, first compound 0.00316 µM
  viability, T/C: 122%
Second compound 0.316 µM, first compound 0.01 µM
  viability, T/C: 116%
[7]
  viability, T/C: 127%
[8]
  viability, T/C: 70%
[9]
  viability, T/C: 17.9%
[10]
  viability, T/C: 15.2%
Second compound 1 µM, first compound 0.00316 µM
  viability, T/C: 123%
Second compound 1 µM, first compound 0.01 µM
  viability, T/C: 138%
[13]
  viability, T/C: 109%
[14]
  viability, T/C: 71%
[15]
  viability, T/C: 14.2%
[16]
  viability, T/C: 13.8%
Second compound 3.16 µM, first compound 0.00316 µM
  viability, T/C: 144%
Second compound 3.16 µM, first compound 0.01 µM
  viability, T/C: 131%
[19]
  viability, T/C: 145%
[20]
  viability, T/C: 66.4%
[21]
  viability, T/C: 13.4%
[22]
  viability, T/C: 14.2%
Second compound 10 µM, first compound 0.00316 µM
  viability, T/C: 134%
Second compound 10 µM, first compound 0.01 µM
  viability, T/C: 154%
[25]
  viability, T/C: 108%
[26]
  viability, T/C: 54.5%
[27]
  viability, T/C: 12.4%
[28]
  viability, T/C: 15.4%

## CC1COCCN1c1cc(C2(S(C)(=N)=O)CC2)nc(-c2ccnc3[nH]ccc23)n1 (stereo not given) + Cc1ccccc1N=Nc1ccc(NC(=O)c2ccnn2C)c(C)c1
Second compound 0.1 µM
  IC50: 2050 nM
Second compound 0.316 µM
  IC50: 2360 nM
Second compound 1 µM
  IC50: 2540 nM
Second compound 3.16 µM
  IC50: 2520 nM
Second compound 10 µM
  IC50: 2550 nM
[1]
  viability, T/C: 93.3%
[2]
  viability, T/C: 84.7%
[3]
  viability, T/C: 86.6%
[4]
  viability, T/C: 86.2%
[5]
  viability, T/C: 28.1%
[6]
  viability, T/C: 15.9%
[7]
  viability, T/C: 104%
[8]
  viability, T/C: 112%
[9]
  viability, T/C: 100%
[10]
  viability, T/C: 101%
[11]
  viability, T/C: 32.8%
[12]
  viability, T/C: 14%
[13]
  viability, T/C: 117%
[14]
  viability, T/C: 110%
[15]
  viability, T/C: 136%
[16]
  viability, T/C: 109%
[17]
  viability, T/C: 36.2%
[18]
  viability, T/C: 14.8%
[19]
  viability, T/C: 123%
[20]
  viability, T/C: 135%
[21]
  viability, T/C: 131%
[22]
  viability, T/C: 120%
[23]
  viability, T/C: 32.8%
[24]
  viability, T/C: 15.5%
[25]
  viability, T/C: 130%
[26]
  viability, T/C: 149%
[27]
  viability, T/C: 139%
[28]
  viability, T/C: 124%
[29]
  viability, T/C: 32.9%
[30]
  viability, T/C: 16.1%

## COc1ccc([C@@H](O)c2cc(-c3ncnc4cc(N5CCOCC5)ccc34)c(F)cc2Cl)nn1 + Cc1ccccc1N=Nc1ccc(NC(=O)c2ccnn2C)c(C)c1
Second compound 0.1 µM
  IC50: > 10000 nM
Second compound 0.316 µM
  IC50: > 10000 nM
Second compound 1 µM
  IC50: > 10000 nM
Second compound 3.16 µM
  IC50: > 10000 nM
Second compound 10 µM
  IC50: > 10000 nM
[1]
  viability, T/C: 116%
[2]
  viability, T/C: 98.5%
[3]
  viability, T/C: 75.9%
[4]
  viability, T/C: 78.1%
[5]
  viability, T/C: 67.1%
[6]
  viability, T/C: 48.3%
[7]
  viability, T/C: 98.8%
[8]
  viability, T/C: 96.3%
[9]
  viability, T/C: 93.5%
[10]
  viability, T/C: 89.9%
[11]
  viability, T/C: 72.8%
[12]
  viability, T/C: 56.6%
[13]
  viability, T/C: 109%
[14]
  viability, T/C: 133%
[15]
  viability, T/C: 108%
[16]
  viability, T/C: 97.2%
[17]
  viability, T/C: 84.4%
[18]
  viability, T/C: 59%
[19]
  viability, T/C: 139%
[20]
  viability, T/C: 117%
[21]
  viability, T/C: 128%
[22]
  viability, T/C: 101%
[23]
  viability, T/C: 91.3%
[24]
  viability, T/C: 54.3%
[25]
  viability, T/C: 142%
[26]
  viability, T/C: 136%
[27]
  viability, T/C: 142%
[28]
  viability, T/C: 105%
[29]
  viability, T/C: 88.9%
[30]
  viability, T/C: 49.9%

## O=C(C=Cn1cnc(-c2cc(C(F)(F)F)cc(C(F)(F)F)c2)n1)NNc1cnccn1 + Cc1ccccc1N=Nc1ccc(NC(=O)c2ccnn2C)c(C)c1
Second compound 0.1 µM
  IC50: 40.1 nM
Second compound 0.316 µM
  IC50: < 9.49 nM
Second compound 1 µM
  IC50: 18.5 nM
Second compound 3.16 µM
  IC50: < 9.49 nM
Second compound 10 µM
  IC50: 140 nM
Second compound 0.1 µM, first compound 0.00949 µM
  viability, T/C: 59%
Second compound 0.1 µM, first compound 0.03 µM
  viability, T/C: 50.4%
Second compound 0.1 µM, first compound 0.0949 µM
  viability, T/C: 41.2%
Second compound 0.1 µM, first compound 0.3 µM
  viability, T/C: 39.5%
Second compound 0.1 µM, first compound 0.949 µM
  viability, T/C: 40.2%
Second compound 0.1 µM, first compound 3 µM
  viability, T/C: 21.5%
Second compound 0.316 µM, first compound 0.00949 µM
  viability, T/C: 54.8%
Second compound 0.316 µM, first compound 0.03 µM
  viability, T/C: 43.1%
Second compound 0.316 µM, first compound 0.0949 µM
  viability, T/C: 39.3%
Second compound 0.316 µM, first compound 0.3 µM
  viability, T/C: 46.1%
Second compound 0.316 µM, first compound 0.949 µM
  viability, T/C: 40.8%
Second compound 0.316 µM, first compound 3 µM
  viability, T/C: 24.6%
Second compound 1 µM, first compound 0.00949 µM
  viability, T/C: 55.8%
Second compound 1 µM, first compound 0.03 µM
  viability, T/C: 42.6%
Second compound 1 µM, first compound 0.0949 µM
  viability, T/C: 45.1%
Second compound 1 µM, first compound 0.3 µM
  viability, T/C: 36.2%
Second compound 1 µM, first compound 0.949 µM
  viability, T/C: 38.4%
Second compound 1 µM, first compound 3 µM
  viability, T/C: 31.8%
Second compound 3.16 µM, first compound 0.00949 µM
  viability, T/C: 53.8%
Second compound 3.16 µM, first compound 0.03 µM
  viability, T/C: 51.4%
Second compound 3.16 µM, first compound 0.0949 µM
  viability, T/C: 47.6%
Second compound 3.16 µM, first compound 0.3 µM
  viability, T/C: 40.8%
Second compound 3.16 µM, first compound 0.949 µM
  viability, T/C: 50.2%
Second compound 3.16 µM, first compound 3 µM
  viability, T/C: 29.8%
Second compound 10 µM, first compound 0.00949 µM
  viability, T/C: 91%
Second compound 10 µM, first compound 0.03 µM
  viability, T/C: 66.2%
Second compound 10 µM, first compound 0.0949 µM
  viability, T/C: 47.6%
Second compound 10 µM, first compound 0.3 µM
  viability, T/C: 53.4%
Second compound 10 µM, first compound 0.949 µM
  viability, T/C: 38.2%
Second compound 10 µM, first compound 3 µM
  viability, T/C: 32.9%
